Results: patent US11660306B2, “Treatment of Rett syndrome” (Cold Spring Harbor Laboratory, priority 2014, dated 2023)

Columns and labels:
PTP1B [1] = assay: Reversibility of PTP1B inhibition by triterpenes (Table 2); assay type: biochemical
PTP1B321 = PTP1B321 (Homo sapiens, UniProt P18031); assay: Triterpene inhibition of PTP1B321 (Table 2); assay type: biochemical
PTP1B405 = PTP1B405 (Homo sapiens, UniProt P18031); assay: Triterpene inhibition of PTP1B405 (Table 2); assay type: biochemical
Mecp2 mutant mice = assay: Anti-diabetic small molecules in Mecp2 mutant mice (FIG. 6D)
Mecp2−/y mice [2] = assay: Survival of Mecp2-null male mice; settings: for survival (in words): Mecp2-null male mice, 5 mg/kg
[3] = system: panel of six PTPs and two dual-specificity phosphatases; assay: Specificity against a panel of phosphatases; assay type: biochemical
Experimental: (§1) In this example, in order to determine the significance of the elevated PTP1B levels in animal models of Rett syndrome, the effects of small molecule inhibitors of the phosphatase were tested. Using para-Nitro Phenyl Phosphate (pNPP) as substrate, PTP1B inhibition by CPT157633 was studied (FIG. 13A). […] To obtain structural insights into the PTP1B-CPT157633 interaction, both biomolecular NMR spectroscopy and X-ray crystallography were used. Residues 1-301 from the catalytic domain of PTP1B were expressed in D2O-based medium and 2D [^1H,^15N] TROSY spectra were recorded in the absence and presence of CPT157633. […] This was confirmed by the crystal structure of the PTP1B:CTP157633 complex, which illustrated a non-covalent interaction. Electrostatic interactions made by the compound to critical active site residues are highlighted in FIG. 13G.
(§2) A second inhibitor of PTP1B that exerts its effect on the enzyme by a different mechanism was characterized. […] It inhibited PTP1B with selectivity compared to a panel of eight phosphatases investigated.

PTP1B [4] = molecular target: PTP1B (Homo sapiens (Human), UniProt P18031); assay: PTP1B phosphatase inhibition; assay type: biochemical
Chain of PTP1B (Homo sapiens (Human), UniProt P18031) (P18031 whole entry): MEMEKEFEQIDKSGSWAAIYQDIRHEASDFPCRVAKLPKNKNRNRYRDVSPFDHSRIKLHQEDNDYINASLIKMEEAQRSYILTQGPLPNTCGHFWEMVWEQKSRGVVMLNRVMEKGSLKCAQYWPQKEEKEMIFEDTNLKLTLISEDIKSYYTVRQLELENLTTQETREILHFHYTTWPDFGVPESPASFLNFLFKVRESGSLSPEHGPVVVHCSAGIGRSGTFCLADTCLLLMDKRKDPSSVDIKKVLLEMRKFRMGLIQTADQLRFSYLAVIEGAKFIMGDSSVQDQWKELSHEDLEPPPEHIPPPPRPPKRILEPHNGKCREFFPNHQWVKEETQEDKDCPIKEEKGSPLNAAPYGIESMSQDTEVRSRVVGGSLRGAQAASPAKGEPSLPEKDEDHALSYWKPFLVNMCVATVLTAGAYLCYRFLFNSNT
Experimental: as §1, §2

Mecp2−/y mice [5] = assay: Glucose tolerance test in Mecp2−/y male mice; settings: 5 mg/Kg, two weeks after treatment

Ki (PTP1B321) [µM]	Ki (PTP1B405) [µM]	Structure (SMILES)	Reversibility (PTP1B [1])	other results
–	–	CC1(C)[C@@H](O)CC[C@]2(C)[C@H]3C(=O)C=C4[C@@H]5C[C@@](C)(C(=O)O)CC[C@]5(C)CC[C@@]4(C)[C@]3(C)CC[C@@H]12	Reversible	–
8.3	7	CC1(C)CC[C@]2(C(=O)O)CC[C@]3(C)C(=CC[C@@H]4[C@@]5(C)C[C@@H](O)[C@H](O)[C@@](C)(CO)[C@@H]5CC[C@]43C)[C@@H]2C1	Reversible	–
3.6	2	CC1(C)CC[C@]2(C(=O)O)CC[C@]3(C)C(=CC[C@@H]4[C@@]5(C)CC[C@H](O)[C@@](C)(CO)[C@@H]5CC[C@]43C)[C@@H]2C1	Reversible	–
2.5	1.5	C=C(C)[C@@H]1CC[C@]2(C)CC[C@]3(C)[C@H](CC[C@@H]4[C@@]5(C)CC[C@H](O)C(C)(C)[C@@H]5CC[C@]43C)[C@@H]12	Reversible	–
–	–	C[C@H]1[C@H](C)CC[C@]2(CO)CC[C@]3(C)C(=CC[C@@H]4[C@@]5(C)CC[C@H](O)C(C)(C)[C@@H]5CC[C@]43C)[C@H]12	Reversible	–
–	–	C[C@H]1[C@H](C)CC[C@]2(C(=O)O)CC[C@]3(C)C(=CC[C@@H]4[C@@]5(C)CC[C@H](O)C(C)(C)C5CC[C@]43C)[C@H]12 (stereo partly drawn)	Reversible	–
3	1.5	C[C@H]1[C@H](C)CC[C@]2(C(=O)O)CC[C@]3(C)C(=CC[C@@H]4[C@@]5(C)C[C@@H](O)[C@H](O)C(C)(C)[C@@H]5CC[C@]43C)[C@H]12	Irreversible	–
–	–	CC1(C)CC[C@]2(C(=O)O)CC[C@]3(C)C(=CC[C@@H]4[C@@]5(C)CC[C@H](O)C(C)(C)[C@@H]5CC[C@]43C)[C@@H]2C1	Reversible	–
6	4	CC1(C)CC[C@]2(C)CC[C@]3(C)C(=CC[C@@H]4[C@@]5(C)CC[C@@H](O)[C@](C)(C(=O)O)[C@@H]5CC[C@]43C)[C@@H]2C1	Reversible	–
4	2	C[C@H]1C(=O)CC[C@H]2[C@]1(C)CC[C@]13C[C@@]14CC[C@@]1(C)CCC(C)(C)C[C@]15C[C@]54CC[C@@]23C	Reversible	–
15	15	COC[C@]12CC[C@@H](C)[C@H](C)[C@H]1[C@@]1(O)C=C[C@@H]3[C@@]4(C)CCC(=O)C(C)(C)[C@@H]4CC[C@@]3(C)[C@]1(C)CC2	Reversible	–
13	11	CC1CCC23CCC4(C)C5(C)CCC6C(C)(C)C(=O)CCC6(C)C5C=CC4(OC2)C3C1C (stereo not drawn)	Reversible	–
7	5	CC1(C)C=C2[C@H]3CC[C@@H]4[C@@]5(C)CCC(=O)C(C)(C)[C@@H]5CC[C@@]4(C)[C@]3(C)CC[C@@]2(C(=O)O)CC1	Reversible	–
6	4	C[C@H]1[C@H](C)CC[C@]2(C)CC[C@]3(C)C(=CC[C@@H]4[C@@]5(C)CC[C@H](O)C(C)(C)[C@@H]5CC[C@]43C)[C@H]12	Irreversible	–
7	4.4	C=C(C)[C@@H]1CC[C@]2(C(=O)O)CC[C@]3(C)[C@H](CC[C@@H]4[C@@]5(C)CC[C@H](OC(=O)CC(C)(C)C(=O)O)C(C)(C)[C@@H]5CC[C@]43C)[C@@H]12	Irreversible	–
15	9	CC1(C)CC[C@]2(C)CC[C@]3(C)[C@H](CC[C@@H]4[C@@]5(C)CCCC(C)(C)[C@@H]5CC[C@]43C)[C@@H]2C1	Reversible	–
7	5	CC1(C)[C@@H](OC(=O)CCC(=O)O)CC[C@]2(C)[C@H]3C(=O)C=C4[C@@H]5C[C@@](C)(C(=O)O)CC[C@]5(C)CC[C@@]4(C)[C@]3(C)CC[C@@H]12	Reversible	–
8	5	CC1(C)CC[C@]2(C)CC=C3C(C)(CC[C@@H]4[C@@]5(C)CC[C@H](O)C(C)(C)[C@@H]5CC[C@@]34C)[C@@H]2C1 (stereo partly drawn)	Reversible	–
18	22	CC/C=C/C(C)(O)OCC1(C)C(=O)CCC2(C)C1CCC1(C)C2CCC2C3C(C)C(C)CCC3(C)CCC21C (stereo not drawn)	Reversible	–
36	25	C[C@H]1CC[C@@]2(OC1)O[C@H]1C[C@H]3[C@@H]4CC=C5C[C@@H](O)CC[C@]5(C)[C@H]4CC[C@]3(C)[C@H]1[C@@H]2C	Reversible	–
–	–	NC(=O)c1ncn([C@@H]2O[C@H](CO)[C@@H](O)[C@H]2O)c1N [AICAR]	–	effectiveness compared with PTP1B inhibitors (Mecp2 mutant mice): none of the three inhibitors were as effective as PTP1B inhibitors
–	–	C[C@@H]1CC[C@]2(C(=O)O)CC[C@]3(C)C(=CCC4[C@@]5(C)CC[C@H](O)C(C)(C)C5CC[C@]43C)C2[C@H]1C (stereo partly drawn) [UA001, ursolic acid, reference compound]	–	survival (in words) (Mecp2−/y mice [2]): improved the survival
–	–	C[C@@H]1CC[C@]2(C(=O)NCCCCCCCCCCC(=O)N[C@@H](Cc3ccccc3)C(=O)O)CC[C@]3(C)C(=CCC4[C@@]5(C)CC[C@H](O)C(C)(C)C5CC[C@]43C)C2[C@H]1C (stereo partly drawn) [UA0713]	–	effect against phosphatase panel compared to PTP1B [3]: selectivity; mode of inhibition of PTP1B (PTP1B [4]): non-competitive; Ki (PTP1B [4]; substrate not stated): 150 nM; survival (in words) (Mecp2−/y mice [2]): improved the survival; increase in survival (Mecp2−/y mice [2]; Mecp2−/y male mice, 5 mg/Kg, versus saline): 2 fold; median life-span (Mecp2−/y mice [2]; Mecp2−/y male mice, 5 mg/Kg, saline 40 days): 95 days; glucose intolerance (Mecp2−/y mice [5]): markedly reduced
–	–	CN(C)C(=N)N=C(N)N [metformin]	–	effectiveness compared with PTP1B inhibitors (Mecp2 mutant mice): none of the three inhibitors were as effective as PTP1B inhibitors
–	–	CN(CCOc1ccc(CC2SC(=O)NC2=O)cc1)c1ccccn1 (stereo not drawn) [rosiglitazone]	–	effectiveness compared with PTP1B inhibitors (Mecp2 mutant mice): none of the three inhibitors were as effective as PTP1B inhibitors

Structure (SMILES)	Ki (PTP1B321) [µM]	Ki (PTP1B405) [µM]	Reversibility (PTP1B [1])	other results
CC1=C(O)C(=O)C=C2C1=CC=C1[C@@]2(C)CC[C@@]2(C)[C@@H]3C[C@](C)(C(=O)O)CC[C@]3(C)CC[C@]12C	10	10	Irreversible	–
COC(=O)[C@]1(C)CC[C@]2(C)CC[C@]3(C)C4=CC=C5C(=CC(=O)C(O)=C5C)[C@]4(C)CC[C@@]3(C)[C@@H]2C1	10	8	Irreversible	–
CC1(C)CC[C@]2(C(=O)O)CC[C@]3(C)C(=CCC4[C@@]5(C)C[C@@H](O)[C@H](O)C(C)(C)[C@@H]5CC[C@]43C)[C@@H]2C1 (stereo partly drawn)	10	5.7	Reversible	–
C=C(C)[C@@H]1CC[C@]2(CO)CC[C@]3(C)[C@H](CC[C@@H]4[C@@]5(C)CC[C@H](O)C(C)(C)[C@@H]5CC[C@]43C)[C@@H]12	3	2	Reversible	–
C=C(C)C1CC[C@]2(C(=O)O)CC[C@]3(C)[C@H](CC[C@@H]4[C@@]5(C)CC[C@H](O)C(C)(C)[C@@H]5CC[C@]43C)[C@@H]12 (stereo partly drawn)	3	0.7	Irreversible	–
CC(C)[C@H]1CC[C@]2(C)[C@H]3CC[C@@H]4[C@@]5(C)CCCC(C)(C)[C@@H]5CC[C@@]4(C)[C@]3(C)CC[C@@H]12	9	5.7	Reversible	–
CC1(C)CCC[C@](C)([C@H]2CC[C@]3(C)[C@@H]2[C@H](O)C[C@@H]2[C@@]4(C)CC[C@H](O)C(C)(C)[C@@H]4[C@H](O)C[C@]23C)O1	14	10	Reversible	–
